29 compounds from patent US12590083B2, “Inhibitors of spinster homolog 2 (SPNS2) for use in therapy” (University of Virginia Patent Foundation, priority 2019, dated 2026) can be followed below.

In this assay the target is T1, human SPNS2 (Homo sapiens, UniProt Q8IVW8).
T1 construct: expressed in transfected cells; host or cells: Saccharomyces cerevisiae strain with forced expression of a mammalian SphK and human SPNS2
T1 sequence (Q8IVW8 1-549): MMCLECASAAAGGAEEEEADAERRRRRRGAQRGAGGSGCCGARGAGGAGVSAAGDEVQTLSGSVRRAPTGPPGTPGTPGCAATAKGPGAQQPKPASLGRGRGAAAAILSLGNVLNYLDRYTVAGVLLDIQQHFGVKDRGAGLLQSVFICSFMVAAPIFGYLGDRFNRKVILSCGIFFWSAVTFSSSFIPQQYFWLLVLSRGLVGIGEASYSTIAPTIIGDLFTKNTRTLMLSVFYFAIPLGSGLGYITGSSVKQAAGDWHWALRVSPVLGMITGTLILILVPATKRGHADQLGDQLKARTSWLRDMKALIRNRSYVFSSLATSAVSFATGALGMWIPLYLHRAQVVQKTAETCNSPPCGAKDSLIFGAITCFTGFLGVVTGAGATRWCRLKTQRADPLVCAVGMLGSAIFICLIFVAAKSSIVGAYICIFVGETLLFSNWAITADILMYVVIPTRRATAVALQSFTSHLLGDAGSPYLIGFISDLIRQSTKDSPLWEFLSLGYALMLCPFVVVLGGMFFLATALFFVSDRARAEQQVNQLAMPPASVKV
Description: S1P transporter assay: growth of S. cerevisiae strain with forced expression of a mammalian SphK and human SPNS2. Conditions: in vitro inhibition of SPNS2; growth of S. cerevisiae strain expressing mammalian SphK and human SPNS2; compounds as their pharmaceutical salts. It counts as cell-based. The text has this:
Transporter assays are vectorial and, therefore, require measurement of the transported analyte in different compartments. The assay of S1P transporters is problematic because S1P is exported, but not imported, by SPNS2, which obviates measuring uptake of mass- or radio-labeled S1P into transporter-expressing cells.
To assay for SPNS2 inhibitor hits, we took advantage of the growth inhibitory effects of excessive levels of phosphorylated Long Chain Base (phospho-LCB) levels on the budding yeast, S. cerevisiae (Kharel Y, et al. Saccharomyces cerevisiae as a platform for assessing sphingolipid lipid kinase inhibitors. PLoS One 13, e0192179 (2018) PMC5908134). Yeast lack the desaturase that converts dihydroceramide to ceramide and, therefore, have neither sphingosine nor S1P. Rather, yeast have the reduced form, dihydrosphingosine, and the 4-hydroxyl analog, phytosphingosine and their respective phosphates. Like all eukaryotes, the yeast synthesizes (via LCB kinases (SphKs)) and degrades (via phospho-LCB lyase and phosphatase) phospho-LCBs, (dhS1P, phytoS1P). Yeast lack phospho-LCB transporters such as SPNS2, which are found only in vertebrates. To assess inhibition of SPNS2 in vitro, we used a strain of S. cerevisiae wherein expression of a mammalian SphK and human SPNS2 were forced. SPNS2 inhibitors decrease the growth of this strain. Table 2 below presents in vitro inhibition data against SPNS2 for exemplary compounds, presented here as their pharmaceutical salts, of the disclosure (A≤2 μM, B>2 μM).

SMILES strings stand for the structures. Counter-ions that a name gives are not always drawn.

As to `CCCCCCCCCCCc1ccc(-c2noc(C3CNC3)n2)cc1` [Compound 5a, 5-(azetidin-3-yl)-3-(4-undecylphenyl)-1,2,4-oxadiazole 2,2,2-trifluoroacetate], the IC50 is greater than 2000 nM.

On to `CCCCCCCCCCOc1ccc(-c2noc([C@@H]3CCCNC3)n2)cc1C(F)(F)F` [Compound 21f, (R)-3-(4-(decyloxy)-3-(trifluoromethyl)phenyl)-5-(piperidin-3-yl)-1,2,4-oxadiazole hydrochloride], for which the IC50 was greater than 2000 nM.

In the case of `CCCCCCCCCCc1ccc(-c2noc([C@H]3CCN(C(=N)N)C3)n2)cc1` [Compound 7e, (S)-amino(3-(3-(4-decylphenyl)-1,2,4-oxadiazol-5-yl)pyrrolidin-1-yl)methaniminium chloride], the IC50 is greater than 2000 nM.

In the case of `C/C(=N\OCc1ccc(F)cc1)c1ccc(-c2noc([C@@H]3CCN(C(=N)N)C3)n2)cc1` [Compound 40m, (R)-3-(3-(4-(1-(((4-fluorobenzyl)oxy)imino)ethyl)phenyl)-1,2,4-oxadiazol-5-yl)pyrrolidine-1-carboximidamide hydrochloride], the IC50 is greater than 2000 nM.

As to `C/C(=N\OCc1ccc(C(C)(C)C)cc1)c1ccc(-c2noc([C@@H]3CCN(C(=N)N)C3)n2)cc1` [Compound 40k, (R)-3-(3-(4-(1-(((4-(tert-butyl)benzyl)oxy)imino)ethyl)phenyl)-1,2,4-oxadiazol-5-yl)pyrrolidine-1-carboximidamide hydrochloride], the IC50 was no more than 2000 nM.

Turning to `CCCCCCCCCCc1ccc(-c2noc([C@@H]3CCCN(C(=N)N)C3)n2)cc1C(F)(F)F` [Compound 30e, (R)-3-(3-(4-decyl-3-(trifluoromethyl)phenyl)-1,2,4-oxadiazol-5-yl)piperidine-1-carboximidamide hydrochloride], the 50% inhibitory concentration (IC50) is no more than 2000 nM.

For `CCCCCCCCCOc1ccc(-c2noc([C@@H]3CCCNC3)n2)cc1C(F)(F)F` [Compound 12e], the IC50 is no more than 2000 nM.

With `FC(F)(F)c1cc(-c2noc([C@@H]3CCCNC3)n2)ccc1OCCCc1ccccc1` [Compound 21j, (R)-3-(4-(3-phenylpropoxy)-3-(trifluoromethyl)phenyl)-5-(piperidin-3-yl)-1,2,4-oxadiazole hydrochloride], the IC50 was greater than 2000 nM.

In the case of `N=C(N)N1CC(c2nc(-c3ccc(OCCCc4ccccc4)c(C(F)(F)F)c3)no2)C1` [Compound 23i, 3-(3-(4-(3-phenylpropoxy)-3-(trifluoromethyl)phenyl)-1,2,4-oxadiazol-5-yl)azetidine-1-carboximidamide hydrochloride], the IC50 is greater than 2000 nM.

In the case of `CCCCCCCCCCCc1ccc(-c2noc([C@@H]3CCCNC3)n2)cc1C(F)(F)F` [Compound 28f, (R)-5-(piperidin-3-yl)-3-(3-(trifluoromethyl)-4-undecylphenyl)-1,2,4-oxadiazole hydrochloride], the IC50 was greater than 2000 nM.

Consider `CCCCCCCCNC(=O)c1ccc(-c2noc([C@@H]3CCN(C(=N)N)C3)n2)cc1` [Compound 40p, (R)-4-(5-(1-carbamimidoylpyrrolidin-3-yl)-1,2,4-oxadiazol-3-yl)-N-octylbenzamide hydrochloride], for which the IC50 is greater than 2000 nM.

For the compound `C/C(=N\OCc1ccc2c(c1)C(C)(C)CCC2(C)C)c1ccc(-c2noc([C@@H]3CCN(C(=N)N)C3)n2)cc1` [Compound 40h, (R)-3-(3-(4-(1-(((5,5,8,8-tetramethyl-5,6,7,8-tetrahydronaphthalen-2-yl)methoxy)imino)ethyl)phenyl)-1,2,4-oxadiazol-5-yl)pyrrolidine-1-carboximidamide hydrochloride], the IC50 was no more than 2000 nM.

Take `CCCCCCCCCO/N=C(\C)c1ccc(-c2noc([C@@H]3CCNC3)n2)cc1` [Compound 38j, hydrochloride]: the IC50 was greater than 2000 nM.

In the case of `CCCCNC(=O)c1ccc(-c2noc([C@@H]3CCNC3)n2)cc1` [Compound 38o, (R)—N-butyl-4-(5-(pyrrolidin-3-yl)-1,2,4-oxadiazol-3-yl)benzamide hydrochloride], the IC50 was greater than 2000 nM.

`N=C(N)N1CC[C@@H](c2nc(-c3ccc(N4CCOCC4)nc3)no2)C1` [Compound 15d, (R)-3-(3-(6-morpholinopyridin-3-yl)-1,2,4-oxadiazol-5-yl)pyrrolidine-1-carboximidamide hydrochloride]: the IC50 is greater than 2000 nM.

Consider `C/C(=N\OCc1ccccc1)c1ccc(-c2noc([C@@H]3CCN(C(=N)N)C3)n2)cc1` [Compound 40g, (R)-3-(3-(4-(1-((benzyloxy)imino)ethyl)phenyl)-1,2,4-oxadiazol-5-yl)pyrrolidine-1-carboximidamide hydrochloride], for which the IC50 is greater than 2000 nM.

With `CCCCCCCCCc1ccc(-c2noc([C@@H]3CCCNC3)n2)cc1C(F)(F)F` [Compound 28d, (R)-3-(4-nonyl-3-(trifluoromethyl)phenyl)-5-(piperidin-3-yl)-1,2,4-oxadiazole hydrochloride], the IC50 is greater than 2000 nM.

Take `CCCCCCCCCc1ccc(-c2noc(C3CN(C(=N)N)C3)n2)cc1` [Compound 7c, 3-(3-(4-nonylphenyl)-1,2,4-oxadiazol-5-yl)azetidine-1-carboximidamide hydrochloride]: the IC50 was no more than 2000 nM.

Consider `N=C(N)N1CC(c2nc(-c3ccc(OCc4ccc(C(F)(F)F)cc4)c(C(F)(F)F)c3)no2)C1` [Compound 23g, 3-(3-(3-(trifluoromethyl)-4-((4-(trifluoromethyl)benzyl)oxy)phenyl)-1,2,4-oxadiazol-5-yl)azetidine-1-carboximidamide hydrochloride], for which the IC50 is greater than 2000 nM.

For `CCCCc1ccc(Nc2ccc(-c3noc([C@@H]4CCN(C(=N)N)C4)n3)cn2)cc1` [Compound 15i, (R)-3-(3-(6-((4-butylphenyl)amino)pyridin-3-yl)-1,2,4-oxadiazol-5-yl)pyrrolidine-1-carboximidamide hydrochloride], the IC50 is greater than 2000 nM.

With `CCCCCCCCCCc1ccc(-c2noc(C[C@H]3CCNC3)n2)cc1` [Compound 5l, (R)-3-(4-decylphenyl)-5-(pyrrolidin-3-ylmethyl)-1,2,4-oxadiazole 2,2,2-trifluoroacetate], the half-inhibitory concentration (IC50) was no more than 2000 nM.

Take `CCCCCCCCCCc1ccc(-c2noc(CC3CNC3)n2)cc1` [Compound 5j, 5-(azetidin-3-ylmethyl)-3-(4-decylphenyl)-1,2,4-oxadiazole 2,2,2-trifluoroacetate]: the IC50 was no more than 2000 nM.

As for `CCCCCCCCCCCc1ccc(-c2noc(C3CN(C(=N)N)C3)n2)cc1` [Compound 7a, 3-(3-(4-undecylphenyl)-1,2,4-oxadiazol-5-yl)azetidine-1-carboximidamide hydrochloride], the IC50 is greater than 2000 nM.

`C/C(=N\OCc1ccccc1)c1ccc(-c2noc([C@@H]3CCNC3)n2)cc1` [Compound 38g, (R)-1-(4-(5-(pyrrolidin-3-yl)-1,2,4-oxadiazol-3-yl)phenyl)ethan-1-one O-benzyl oxime hydrochloride]: the concentration for half-maximal inhibition (IC50) is greater than 2000 nM.

As for `CCCCCCCCNc1ccc(-c2noc([C@@H]3CCNC3)n2)cn1` [Compound 13b, (R)—N-octyl-5-(5-(pyrrolidin-3-yl)-1,2,4-oxadiazol-3-yl)pyridin-2-amine hydrochloride], the IC50 was greater than 2000 nM.

As to `C/C(=N\OCc1ccc(C(C)(C)C)cc1)c1ccc(-c2noc([C@@H]3CCNC3)n2)cc1` [Compound 38k, (R,E)-1-(4-(5-(pyrrolidin-3-yl)-1,2,4-oxadiazol-3-yl)phenyl)ethan-1-one O-(4-(tert-butyl)benzyl) oxime hydrochlorid], the IC50 is no more than 2000 nM.

Regarding `N=C(N)N1CC(c2nc(-c3ccc(OCCCc4ccccc4)cc3)no2)C1` [Compound 15j, 3-(3-(4-(3-phenylpropoxy)phenyl)-1,2,4-oxadiazol-5-yl)azetidine-1-carboximidamide hydrochloride], the IC50 was greater than 2000 nM.

For the compound `c1cc(N2CCOCC2)ncc1-c1noc([C@@H]2CCNC2)n1` [Compound 13d, (R)-4-(5-(5-(pyrrolidin-3-yl)-1,2,4-oxadiazol-3-yl)pyridin-2-yl)morpholine hydrochloride], the IC50 is greater than 2000 nM.

As to `C/C(=N\OCc1ccc(-c2ccccc2)cc1)c1ccc(-c2noc([C@@H]3CCNC3)n2)cc1` [Compound 38d, (R)-1-(4-(5-(pyrrolidin-3-yl)-1,2,4-oxadiazol-3-yl)phenyl)ethan-1-one O-([1,1′-biphenyl]-4-ylmethyl) oxime hydrochloride], the IC50 is greater than 2000 nM.
